Ends that are not written are not given here.
What was measured:
[1] = tested on: methicillin resistant Staphylococcus aureus (MRSA) biofilm; conditions: approximate peptide concentration […] (around 3 μg/ml); compared to untreated samples
In short: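 Static biofilm assay: 1/100 dilutions of overnight cultures grown in BM2 medium (pH 7, glucose, Casamino Acids) or Luria Broth with peptide added at time zero. After 22–46 h, adherent biofilm was stained with crystal violet and read at 595 nm. Some peptides were also tested on K. pneumoniae under flow in a Bioflux system.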

[2] = tested on: human peripheral blood mononuclear cells (MCP-1); assay: SPOT-synthesized derivative screen: production of chemokine MCP-1; assay type: cell-based; conditions: Table 12, No LPS, human PBMC, peptide at ~18-24 μM; for MCP1: background subtracted 139 (HH2 derivatives), 170 (1018 derivatives), 242 (1002 and hybrid peptides) pg/ml
In short: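 PBMC from heparinized healthy-donor venous blood, Ficoll-separated, cultured at 0.75 to 1×10^6 cells/ml, 37 °C, 5% CO2, under the treatment regimens. MCP-1 in cell-free supernatants measured by capture ELISA.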

[3] = tested on: LPS-stimulated human peripheral blood mononuclear cells (IL1-β); assay type: cell-based; conditions: Table 12, cells stimulated with 10 ng/ml LPS; for IL1β Production: LPS alone 1313 (HH2 derivatives), 1927 (1018 derivatives), 2455 (1002 and hybrid peptides) pg/ml

Row | Substance | % Biofilm inhibition [1] | Fold increase in MCP1 cf. untreated cells [2] | MCP1 [2] | Fold change in IL1β relative to no peptide LPS stimulated cells [3] | IL1β Production [3]
1 | 1018-A9: single substituted 1018 peptide (VRLIVAVRAWRR-NH2) [Peptide 1018-A9] | 49% | 0.5 | -88 pg/mL | 0.90 | 1176 pg/mL
2 | 1002-Q6: single substituted 1002 peptide (VQRWLQVWRIRK-NH2) [Peptide 1002-Q6] | 22% | 0.9 | -36.2 pg/mL | 0.35 | 859 pg/mL
3 | HH2C-HH2N: derivative of HH2, 1002 and 1018 made by SPOT synthesis (VAVIRAVQLRIR-NH2) | 61% | 2.0 | 239.0 pg/mL | 0.31 | 769 pg/mL
4 | 1002-Q12: single substituted 1002 peptide (VQRWLIVWRIRQ-NH2) [Peptide 1002-Q12] | 65% | 6.1 | 1225.7 pg/mL | 0.05 | 127 pg/mL
5 | 1002-W9: single substituted 1002 peptide (VQRWLIVWWIRK-NH2) [Peptide 1002-W9] | 73% | 1.0 | 12.0 pg/mL | 0.05 | 127 pg/mL
6 | 1018-A7: single substituted 1018 peptide (VRLIVAARIWRR-NH2) [Peptide 1018-A7] | 52% | 0.5 | -88 pg/mL | 0.68 | 891 pg/mL
7 | HH2-L9: single substituted HH2 peptide (VQLRIRVALIRA-NH2) | 65% | 10 | 1527 pg/mL | 1.04 | 1359 pg/mL
8 | 1002-I9: single substituted 1002 peptide (VQRWLIVWIIRK-NH2) [Peptide 1002-I9] | 53% | 3.5 | 605.9 pg/mL | 0.06 | 158 pg/mL
9 | HH2-Q1: single substituted HH2 peptide (QQLRIRVAVIRA-NH2) | 57% | 65 | 10838 pg/mL | 0.89 | 1171 pg/mL
10 | 1018-Q8: single substituted 1018 peptide (VRLIVAVQIWRR-NH2) [Peptide 1018-Q8] | 51% | 0.4 | -104 pg/mL | 0.10 | 127 pg/mL
11 | 1002-Q8: single substituted 1002 peptide (VQRWLIVQRIRK-NH2) [Peptide 1002-Q8] | 20% | 0.9 | -36.2 pg/mL | 0.66 | 1608 pg/mL
12 | 1018-W11: single substituted 1018 peptide (VRLIVAVRIWWR-NH2) [Peptide 1018-W11] | 53% | 0.8 | -28 pg/mL | 0.62 | 814 pg/mL
13 | HH2-V5: single substituted HH2 peptide (VQLRVRVAVIRA-NH2) | 50% | 9.3 | 1409 pg/mL | 1.29 | 1696 pg/mL
14 | 1018-I3: single substituted 1018 peptide (VRIIVAVRIWRR-NH2) [Peptide 1018-I3] | 68% | 0.7 | -50 pg/mL | 0.12 | 156 pg/mL
15 | HH2-K3: single substituted HH2 peptide (VQKRIRVAVIRA-NH2) | 14% | 11 | 1763 pg/mL | 1.34 | 1761 pg/mL
16 | 1002-V9: single substituted 1002 peptide (VQRWLIVWVIRK-NH2) [Peptide 1002-V9] | 47% | 1.5 | 131.8 pg/mL | 0.05 | 134 pg/mL
17 | 1002-L11: single substituted 1002 peptide (VQRWLIVWRILK-NH2) [Peptide 1002-L11] | 61% | 9.5 | 2048.4 pg/mL | 0.05 | 127 pg/mL
18 | 1018-A5: single substituted 1018 peptide (VRLIAAVRIWRR-NH2) [Peptide 1018-A5] | 54% | 1.3 | 57 pg/mL | 0.57 | 752 pg/mL
19 | 1002-W5: single substituted 1002 peptide (VQRWWIVWRIRK-NH2) [Peptide 1002-W5] | 76% | 0.9 | -36.2 pg/mL | 0.05 | 127 pg/mL
20 | 1018-G10: single substituted 1018 peptide (VRLIVAVRIGRR-NH2) [Peptide 1018-G10] | 55% | 0.8 | -41 pg/mL | 0.46 | 605 pg/mL
21 | 1002-I11: single substituted 1002 peptide (VQRWLIVWRIIK-NH2) [Peptide 1002-I11] | 67% | 2.0 | 238.8 pg/mL | 0.05 | 127 pg/mL
22 | 1002-K5: single substituted 1002 peptide (VQRWKIVWRIRK-NH2) [Peptide 1002-K5] | 79% | 3.4 | 592.6 pg/mL | 0.14 | 339 pg/mL
23 | HH2-I11: single substituted HH2 peptide (VQLRIRVAVIIA-NH2) | 55% | 60 | 9977 pg/mL | 1.07 | 1402 pg/mL
24 | HH2-A4: single substituted HH2 peptide (VQLAIRVAVIRA-NH2) | 42% | 5.0 | 672 pg/mL | 1.52 | 2000 pg/mL
25 | HH2-Q7: single substituted HH2 peptide (VQLRIRQAVIRA-NH2) | 21% | 3.9 | 488 pg/mL | 1.00 | 1316 pg/mL
26 | HH2-K11: single substituted HH2 peptide (VQLRIRVAVIKA-NH2) | 43% | 18 | 2884 pg/mL | 1.21 | 1593 pg/mL
27 | HH2-L8: single substituted HH2 peptide (VQLRIRVLVIRA-NH2) | 50% | 107 | 17953 pg/mL | 0.55 | 725 pg/mL
28 | HH2-G12: single substituted HH2 peptide (VQLRIRVAVIRG-NH2) | 69% | 68 | 11442 pg/mL | 1.09 | 1433 pg/mL
29 | 1018-L4: single substituted 1018 peptide (VRLLVAVRIWRR-NH2) [Peptide 1018-L4] | 64% | 0.9 | -10 pg/mL | 0.10 | 127 pg/mL
30 | 1018-I1: single substituted 1018 peptide (IRLIVAVRIWRR-NH2) [Peptide 1018-I1] | 56% | 18 | 2873 pg/mL | 0.11 | 138 pg/mL

— patent publication US20190315823A1, “SMALL CATIONIC ANTI-BIOFILM AND IDR PEPTIDES” (priority 2013, published 2019)
